Test results from patent US20230406843A1, “Progranulin Modulators and Methods of Using the Same” (ARKUDA THERAPEUTICS, priority 2020, published 2023).

Test system: progranulin
Experiment: Progranulin induction cellular assay (ELISA of secreted mouse PGRN)
Format: cell-based
Conditions: Mus musculus, BV-2, read-out: EC50 μM
Summary of the method: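 Secreted mouse PGRN in culture medium is measured by ELISA. Cells tested are BV-2, primary cortical neurons and primary microglia. BV-2 cells are plated a day ahead, allowed 1 h to attach, then incubated 16 h.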

Row | SMILES | EC50 [µM]
1 | CC(=O)N[C@@H]1CO[C@@H](C(=O)N2CCc3ccccc3[C@@H]2c2ccc(F)cc2)C[C@@H]1N [Compound 5427, N-((3S,4S,6R)-4-amino-6-((S)-1-(4-fluorophenyl)-1,2,3,4-tetrahydroisoquinoline-2-carbonyl)tetrahydro-2H-pyran-3-yl)acetamide] | 0.096

Same assay, conditions: progranulin induction assay; mouse pMG, primary cortical neurons and BV-2 cell lines named, cell type not given; ELISA-based readout; read-out: EC50

Row | SMILES | EC50 [µM]
2 | O=C([C@H]1C[C@@H]2NCCO[C@H]2CO1)N1CCc2ccccc2[C@@H]1c1ccc(F)cc1 [Compound 5266, ((S)-1-(4-fluorophenyl)-3,4-dihydroisoquinolin-2(1H)-yl)((4aR,7R,8aS)-octahydropyrano[3,4-b][1,4]oxazin-7-yl)methanone] | 0.036
3 | O=C([C@H]1CNCCO1)N1CCc2ccccc2[C@@H]1c1ccc(F)cc1 [Compound 5405, ((S)-1-(4-fluorophenyl)-3,4-dihydroisoquinolin-2(1H)-yl)((R)-morpholin-2-yl)methanone] | 0.736
4 | O=C([C@@H]1CNCCO1)N1CCc2ccccc2[C@@H]1c1ccc(F)cc1 [Compound 5406, ((S)-1-(4-fluorophenyl)-3,4-dihydroisoquinolin-2(1H)-yl)((S)-morpholin-2-yl)methanone] | 0.715
5 | O=C([C@H]1OCCNC[C@H]1F)N1CCc2ccccc2[C@@H]1c1ccc(F)cc1 [Compound 5421] | 0.843
6 | O=C([C@H]1C[C@@H]2NC=N[C@@H]2CO1)N1CCc2ccccc2[C@@H]1c1ccc(F)cc1 [Compound 5430, ((S)-1-(4-fluorophenyl)-3,4-dihydroisoquinolin-2(1H)-yl)((3aS,6R,7aS)-1,3a,4,6,7,7a-hexahydropyrano[3,4-d]imidazol-6-yl)methanone] | > 0.3
7 | CN[C@@H]1CO[C@@H](C(=O)N2CCc3ccccc3[C@@H]2c2ccc(F)cc2)C[C@@H]1O [Compound 5431, ((S)-1-(4-fluorophenyl)-3,4-dihydroisoquinolin-2(1H)-yl)((2R,4S,5R)-4-hydroxy-5-(methylamino)tetrahydro-2H-pyran-2-yl)methanone] | 0.029
8 | O=C([C@H]1C[C@@H]2OCCN[C@@H]2CO1)N1CCc2ccccc2[C@@H]1c1ccc(F)cc1 [Compound 5432, ((S)-1-(4-fluorophenyl)-3,4-dihydroisoquinolin-2(1H)-yl)((4aR,7R,8aS)-hexahydro-2H,5H-pyrano[4,3-b][1,4]oxazin-7-yl)methanone] | 0.113

Other lines, results leading:

Row | EC50 [µM] | SMILES
9 | 0.0001 | CC(C)O[C@H]1CO[C@@H](C(=O)N2CCc3ccccc3[C@@H]2c2ccc(F)cc2)C[C@@H]1N [Compound 5267, ((2R,4S,5R)-4-amino-5-isopropoxytetrahydro-2H-pyran-2-yl)((S)-1-(4-fluorophenyl)-3,4-dihydroisoquinolin-2(1H)-yl)methanone]
10 | 0.186 | CS[C@@H]1CO[C@@H](C(=O)N2CCc3ccccc3[C@@H]2c2ccc(F)cc2)C[C@@H]1N [Compound 5425, ((2R,4S,5S)-4-amino-5-(methylthio)tetrahydro-2H-pyran-2-yl)((S)-1-(4-fluorophenyl)-3,4-dihydroisoquinolin-2(1H)-yl)methanone]
11 | 0.441 | CS(=O)(=O)[C@@H]1CO[C@@H](C(=O)N2CCc3ccccc3[C@@H]2c2ccc(F)cc2)C[C@@H]1N [Compound 5426, ((2R,4S,5S)-4-amino-5-(methylsulfonyl)tetrahydro-2H-pyran-2-yl)((S)-1-(4-fluorophenyl)-3,4-dihydroisoquinolin-2(1H)-yl)methanone]
12 | > 10 | CS(=O)(=O)N[C@@H]1CO[C@@H](C(=O)N2CCc3ccccc3[C@@H]2c2ccc(F)cc2)C[C@@H]1N [Compound 5428, N-((3S,4S,6R)-4-amino-6-((S)-1-(4-fluorophenyl)-1,2,3,4-tetrahydroisoquinoline-2-carbonyl)tetrahydro-2H-pyran-3-yl)methanesulfonamide]
13 | 0.151 | N[C@H]1C[C@H](C(=O)N2CCc3ccccc3[C@@H]2c2ccc(F)cc2)OC[C@H]1OC(F)F [Compound 5443, ((2R,4S,5S)-4-amino-5-(difluoromethoxy)tetrahydro-2H-pyran-2-yl)((S)-1-(4-fluorophenyl)-3,4-dihydroisoquinolin-2(1H)-yl)methanone]
